Assay results reported in ChEMBL document CHEMBL1201862, “PubChem BioAssay data set” (2004).
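These data come from cells grown in 96-well plates and exposed to compound for 48 hours at five concentrations. The concentration for 50% growth inhibition is given as GI50.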 Active and inactive are the calls of the source. Rule as the data show it: active = GI50 up to about 1.1 µM and inactive = higher.

How the values were obtained:
Assay in all cases: NCI anticancer screen, dose series, 48 h
COLO 205 = system: COLO 205
UACC-257 = system: UACC-257
OVCAR-5 = system: OVCAR-5
HCT-15 = system: HCT-15
KM12 = system: KM12
LOX IMVI = system: LOX IMVI
U-251 = system: U-251
Hs-578T = system: Hs-578T
A498 = system: A498
T47D = system: T47D
SF-268 = system: SF-268
RPMI-8226 = system: RPMI-8226
SK-MEL-28 = system: SK-MEL-28
HL-60 = system: HL-60
HCT-116 = system: HCT-116
A549 = system: A549
HT-29 = system: HT-29
TK-10 = system: TK-10
SN12C = system: SN12C

Row | Structure (SMILES) | GI50 (COLO 205) | GI50 (UACC-257) | GI50 (OVCAR-5) | GI50 (HCT-15) | GI50 (KM12) | GI50 (LOX IMVI) | GI50 (U-251) | GI50 (Hs-578T) | GI50 (A498) | GI50 (T47D) | GI50 (SF-268) | GI50 (RPMI-8226) | GI50 (SK-MEL-28) | GI50 (HL-60) | GI50 (HCT-116) | GI50 (A549) | GI50 (HT-29) | GI50 (TK-10) | GI50 (SN12C)
1 | C=CC(=O)N1C/C(=C\c2ccc(Cl)cc2)C(=O)/C(=C/c2ccc(Cl)cc2)C1 | 0.39 µM (active) | 1.19 µM (inactive) | 0.641 µM (active) | 0.182 µM | 0.234 µM (active) | 0.124 µM (active) | 0.173 µM (active) | 0.321 µM (active) | 0.494 µM (active) | 2 µM (inactive) | 0.221 µM (active) | 0.0263 µM (active) | 0.442 µM (active) | 0.484 µM (active) | 0.0923 µM (active) | 0.356 µM (active) | 0.0989 µM (active) | 1.39 µM (inactive) | 0.313 µM (active)
2 | CCOC(=O)c1csc(C(CSCc2ccc(OC)cc2)N2C(=O)c3ccccc3C2=O)n1 (centres undefined) | > 100 µM (inactive) | > 100 µM (inactive) | > 100 µM (inactive) | 62.7 µM | > 100 µM (inactive) | 37.6 µM (inactive) | > 100 µM (inactive) | > 100 µM (inactive) | > 100 µM (inactive) | 69.2 µM (inactive) | > 100 µM (inactive) | 38 µM (inactive) | > 100 µM (inactive) | 33.7 µM (inactive) | 49.1 µM (inactive) | > 100 µM (inactive) | 87.7 µM (inactive) | > 100 µM (inactive) | > 100 µM (inactive)
3 | O=C(OCc1ccccc1)c1nc2ccccc2n1S(=O)(=O)c1ccccc1 | 88.7 µM (inactive) | > 100 µM (inactive) | > 100 µM (inactive) | > 100 µM | > 100 µM (inactive) | > 100 µM (inactive) | > 100 µM (inactive) | > 100 µM (inactive) | > 100 µM (inactive) | 59.2 µM (inactive) | > 100 µM (inactive) | > 100 µM (inactive) | > 100 µM (inactive) | > 100 µM (inactive) | > 100 µM (inactive) | > 100 µM (inactive) | > 100 µM (inactive) | > 100 µM (inactive) | > 100 µM (inactive)
4 | CCn1ncc(Oc2c(Cl)cc(N)cc2Cl)c(Cl)c1=O | 22.7 µM (inactive) | 31.6 µM (inactive) | 43.9 µM (inactive) | 27.8 µM | 34.8 µM (inactive) | 32.9 µM (inactive) | 34.1 µM (inactive) | 22.5 µM (inactive) | 47.3 µM (inactive) | 50.2 µM (inactive) | 31 µM (inactive) | 31.6 µM (inactive) | 51.3 µM (inactive) | 34.2 µM (inactive) | 30.4 µM (inactive) | 30.5 µM (inactive) | 25.3 µM (inactive) | 47.2 µM (inactive) | 79.3 µM (inactive)
5 | CN(C)/C=N\c1cccc2c1NSN2 | > 100 µM (inactive) | > 100 µM (inactive) | > 100 µM (inactive) | > 100 µM | > 100 µM (inactive) | > 100 µM (inactive) | > 100 µM (inactive) | > 100 µM (inactive) | > 100 µM (inactive) | > 100 µM (inactive) | > 100 µM (inactive) | > 100 µM (inactive) | > 100 µM (inactive) | > 100 µM (inactive) | > 100 µM (inactive) | > 100 µM (inactive) | > 100 µM (inactive) | > 100 µM (inactive) | > 100 µM (inactive)
6 | COc1ccc2c(c1)CCN1CCc3ccccc3CC21 (centres undefined) | 19.4 µM (inactive) | 29.7 µM (inactive) | 30.3 µM (inactive) | 48.2 µM | 37.2 µM (inactive) | 24 µM (inactive) | 34.7 µM (inactive) | 72.6 µM (inactive) | 30 µM (inactive) | 43.7 µM (inactive) | 24.8 µM (inactive) | 19.1 µM (inactive) | 27.6 µM (inactive) | 16.8 µM (inactive) | 20.4 µM (inactive) | 49.7 µM (inactive) | 27.8 µM (inactive) | 35.7 µM (inactive) | 73.5 µM (inactive)
